Laboratory results from patent EP0513997A1, “Antithrombotic compositions” (CHINOIN Gyogyszer és Vegyészeti Termékek Gyára RT., priority 1991, dated 1992).

Experiments:
[1] = tested on: rabbit platelets; assay: In vitro rabbit platelet aggregation induced by ADP, collagen, AA or A 23187 Ca ionophor; type: cell-based
From the text: We compared on rabbit platelets the in vitro antiaggregatory effect , of acetylsalicylic acid (ASA), salicylic acid (SA). Pentoxifylline (Pentox or Trental), Nospa, Papaverine and Depogen. The aggregation of the rabbit platelets was induced by adenosine diphosphate (ADP), arachidonic acid (AA), Collagen and A 23187 Ca ionophor.

[2] = tested on: rabbit platelets; assay: Inhibition of PAF induced platelet aggregation; type: cell-based; conditions: aggregation induced by 1 µM of PAF
[3] = tested on: rabbit platelets; assay: Inhibition of PAF induced serotonine release in platelets; type: cell-based; conditions: release induced by 5 x 10⁻⁸ M of PAF
[4] = tested on: platelet aggregation; assay: Ex vivo platelet aggregation after administration; type: in vivo, rabbits
[5] = tested on: thrombus formation; assay: In vivo thrombus formation on cotton thread in arterio-venous plastic vessel shunt; set-up: species or system anaesthetised rabbits
Experimental: We investigated furthermore the in vivo antithrombotic effect of Depogen on anaesthetised rabbits. Depogen was administered intravenously in a dose range of 2.5-7.5 mg/kg. The vena yugularis was connected with the arteria carotis with the help of a plastic vessel. In the plastic vessel a cotton thread was placed, which served as inductor. The amount of thrombus sticked to the surface of the cotton was weighed in the case of the treated and untreated animals (after Herrmann R.G. et al., Proc. Soc. Exp. Biol. Med. 139, 548-552, 1972.)

[6] = tested on: prostacyclin release from the aorta; assay: In vitro prostacyclin (PGI2) release from the aorta; type: cell-based; conditions: in vitro (Figure 6)
From the text: From the point of view of PGI2 release Depogen represents a considerable […] compared to Pentoxifylline, as the ratio of the doses inhibiting platelet aggregation and increasing PGI2 release is lower for Depogen than for Pentoxifylline (Table 6) and thus the effective dose ranges of the two actions are closer to each other in the case of Depogen.

[7] = tested on: thromboxane and prostacyclin level of the blood plasma; assay: Thromboxane and prostacyclin level of the blood plasma after 4 days per os administration; type: in vivo; conditions: rat, determined on the 5th day
Experimental: We investigated the effect of Depogen on the thromboxane and prostacyclin level of the blood plasma, in rat, after 4 days of per os administration in doses of 5 mg/kg and 10 mg/kg. On the 5th day we determined the thromboxane and prostacyclin level of the blood plasma (Table 7).

[8] = tested on: acified ethanol- and indomethacine- induced ulceration; assay: Acidified ethanol- and indomethacin-induced ulceration; type: in vivo; conditions: rat, in the antiaggregatory dose
From the text: The active ingredients according to the present invention, first of all Depogen, have further advantages compared with the widespreadly used ASA. ASA has significant gastrointestinal adverse effects, such as peptic ulcer, gastric haemorrhage. Depogen has no such adverse effect, and what is more, it has a weak ulcus-preventing activity. According to the measurements, in the antiaggregatory dose it exerts a 25-50 % inhibition on the acified ethanol- and indomethacine- induced ulceration in rat.

[9] = Table 5, unit inferred, aggregation induced by A 23187, read-out: Antiaggregatory Effect A 23187
[10] = Table 5, unit inferred, aggregation induced by AA, read-out: Antiaggregatory Effect AA
[11] = Table 5, unit inferred, aggregation induced by ADP, read-out: Antiaggregatory Effect ADP
[12] = Table 5, unit inferred, aggregation induced by Collagen, read-out: Antiaggregatory Effect Collagen
[13] = aggregation induced by A-23187 Ca ionophor, in vitro, read-out: IC50 rabbit platelet aggregation, A-23187
[14] = aggregation induced by ADP, in vitro, read-out: IC50 rabbit platelet aggregation, ADP
[15] = aggregation induced by Collagen, in vitro, read-out: IC50 rabbit platelet aggregation, Collagen
[16] = aggregation induced by arachidonic acid (AA), in vitro, read-out: IC50 rabbit platelet aggregation, AA
[17] = Oryctolagus cuniculus, Platelet, aggregation induced by A-23187 Ca ionophor, in vitro, read-out: IC50 rabbit platelet aggregation, A-23187
[18] = Oryctolagus cuniculus, Platelet, aggregation induced by ADP, in vitro, read-out: IC50 rabbit platelet aggregation, ADP
[19] = Oryctolagus cuniculus, Platelet, aggregation induced by Collagen, in vitro, read-out: IC50 rabbit platelet aggregation, Collagen
[20] = Oryctolagus cuniculus, Platelet, aggregation induced by arachidonic acid (AA), in vitro, read-out: IC50 rabbit platelet aggregation, AA
[21] = Oryctolagus cuniculus, Platelet
[22] = p.o. 10 mg/kg/day during 4 days
[23] = Oryctolagus cuniculus, Platelet, read-out: IC50 rabbit platelet aggregation, A-23187
[24] = Oryctolagus cuniculus, Platelet, read-out: IC50 rabbit platelet aggregation, AA
[25] = Oryctolagus cuniculus, Platelet, read-out: IC50 rabbit platelet aggregation, ADP
[26] = Oryctolagus cuniculus, Platelet, read-out: IC50 rabbit platelet aggregation, Collagen

SMILES | IC50 [1, 9] [µM] | IC50 [1, 10] [µM] | IC50 [1, 11] [µM] | IC50 [1, 12] [µM] | IC50 [1, 13] [µM] | IC50 [1, 14] [µM] | IC50 [1, 15] [µM] | IC50 [1, 16] [µM] | IC50 [1, 17] [µM] | IC50 [1, 18] [µM] | IC50 [1, 19] [µM] | IC50 [1, 20] [µM] | IC50 [2, 21] [µM] | IC50 [3, 21] [µM] | IC50 [1, 23] [µM] | IC50 [1, 24] [µM] | IC50 [1, 25] [µM] | IC50 [1, 26] [µM] | further results
CC(=O)CCCCn1c(=O)c2c(ncn2C)n(C)c1=O [Pentoxifylline, reference compound] |  |  |  |  |  |  |  |  | 2770 | 2660 | 2050 | 1870 | 1000 | 800 |  |  |  |  | IC50 ([1]; Oryctolagus cuniculus, Platelet, Table 5, unit inferred, aggregation induced by AA, read-out: Antiaggregatory Effect AA): 1870 µM; IC50 ([1]; Oryctolagus cuniculus, Platelet, Table 5, unit inferred, aggregation induced by ADP, read-out: Antiaggregatory Effect ADP): 2660 µM; IC50 ([1]; Oryctolagus cuniculus, Platelet, Table 5, unit inferred, aggregation induced by Collagen, read-out: Antiaggregatory Effect Collagen): 2050 µM
COc1ccc(Cc2nccc3cc(OC)c(OC)cc23)cc1OC [Papaverine, 1-(3′,4′-dimethoxy-benzyl)-6,7-dimethoxy-isoquinoline] |  |  |  |  |  |  |  |  |  |  |  |  | 656 | 48.2 | 1060 | 130 | 190 | 270 | IC50 ([1]; Oryctolagus cuniculus, Platelet, read-out: Antiaggregatory Effect A 23187): 1060 µM; IC50 ([1]; Oryctolagus cuniculus, Platelet, read-out: Antiaggregatory Effect AA): 130 µM; IC50 ([1]; Oryctolagus cuniculus, Platelet, read-out: Antiaggregatory Effect ADP): 190 µM; IC50 ([1]; Oryctolagus cuniculus, Platelet, read-out: Antiaggregatory Effect Collagen): 270 µM
CC(=O)Oc1ccccc1C(=O)O [ASA, acetylsalicylic acid, reference compound] |  |  |  |  |  |  |  |  | 2440 | 4050 | 2610 | 780 |  |  |  |  |  |  | 
O=C(O)c1ccccc1O [Salicylic acid, salicylic acid, reference compound] |  |  |  |  |  |  |  |  |  |  |  |  |  |  | 2610 | 1010 | 1380 | 1300 | 

The next lines start with results.

IC50 [1, 9] [µM] | IC50 [1, 10] [µM] | IC50 [1, 11] [µM] | IC50 [1, 12] [µM] | IC50 [1, 13] [µM] | IC50 [1, 14] [µM] | IC50 [1, 15] [µM] | IC50 [1, 16] [µM] | SMILES | IC50 [1, 17] [µM] | IC50 [1, 18] [µM] | IC50 [1, 19] [µM] | IC50 [1, 20] [µM] | IC50 [2, 21] [µM] | IC50 [3, 21] [µM] | IC50 [1, 23] [µM] | IC50 [1, 24] [µM] | IC50 [1, 25] [µM] | IC50 [1, 26] [µM] | further results
840 | 810 | 740 | 580 | 840 | 740 | 580 | 810 | CCOc1ccc(CC2=NCCc3cc(OCC)c(OCC)cc32)cc1OCC [Nospa, 1-(3-,4′-diethoxybenzyl)-6,7-diethoxy-3,4-dihydro-iso-quinoline] |  |  |  |  |  |  |  |  |  |  | IC50 [2]: 756 µM; IC50 [3]: 96 µM
228 | 240 | 247 | 140 | 230 | 247 | 140 | 240 | CCOc1ccc(CC2=NCCc3cc(OCC)c(OCC)cc32)cc1OCC [Depogen, (3′,4′-diethoxy-benzyl)-6,7-diethoxy-3,4-dihydroisoquinolinium theophyllin-7-acetate] |  |  |  |  | 684 | 118 |  |  |  |  | antiaggregatory effect, times stronger than that of ASA ([1]; compared with ASA, in vitro): 10-20 times; inhibition at 2.5 mg/kg ([4]; Oryctolagus cuniculus, Platelet, iv, dose 2.5 mg/kg intravenously, read-out: Inhibitory Effect % ex vivo aggregation): 30 ± 4%; inhibition at 5 mg/kg ([4]; Oryctolagus cuniculus, Platelet, iv, dose 5.0 mg/kg intravenously, read-out: Inhibitory Effect % ex vivo aggregation): 45 ± 5%; inhibition at 7.5 mg/kg ([4]; Oryctolagus cuniculus, Platelet, iv, dose 7.5 mg/kg intravenously, read-out: Inhibitory Effect % ex vivo aggregation): 55 ± 6%; antiaggregatory effect in ex vivo experiments ([4]; after oral and intravenous administration (Figures 3 and 4)): significant antiaggregatory effect; Inhibitory Effect % in vivo thrombus formation ([5]; dose 2.5 mg/kg intravenously): 25± 3%; Inhibitory Effect % in vivo thrombus formation ([5]; dose 5.0 mg/kg intravenously): 45± 5%; Inhibitory Effect % in vivo thrombus formation ([5]; dose 7.5 mg/kg intravenously): 60± 7%; prostacyclin release from the aorta [6]: significantly enhances; PGI2 ([7]; p.o. 5 mg/kg/day during 4 days): 206.4± 11.2 pg/ml of plasma; PGI2/TxA2 ([7]; p.o. 5 mg/kg/day during 4 days): 4.2; TxA2 ([7]; p.o. 5 mg/kg/day during 4 days): 48.7± 3.9 pg/ml of plasma; PGI2 [7, 22]: 363.8± 19.3 pg/ml of plasma; PGI2/TxA2 [7, 22]: 11; TxA2 [7, 22]: 33.7± 3.6 pg/ml of plasma; inhibition on the acified ethanol- and indomethacine- induced ulceration [8]: 25-50%
